As a reminder, the IC50 is the concentration at which inhibition is half-maximal.

The results in this text go back to patent US9493448B2, “Cycloalkane derivatives” (Daiichi Sankyo Company, Limited, priority 2012, dated 2016).

SMILES strings stand for the structures. Bounds are passed on as bounds.

For one assay, the system named is mice and rats affected by thermal hyperalgesia. Nature of the assay: Thermal hyperalgesia assay.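 Note: measurement times set by the study director and not disclosed.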 Format: in vivo. The note with it: oral administration, constant dose, against the vehicle treatment group; latency to escape behaviors after thermal stimulation of hind paw.
As for `Cn1nccc1[C@H]1CCC[C@@H]1Oc1ccc(S(=O)(=O)Nc2ccncn2)cc1Cl` (relative stereo) [Example 23, 3-Chloro-4-({[(1S*,2R*)-2-(1-methyl-1H-pyrazol-5-yl)cyclopentyl]oxy}-N-(pyrimidin-4-yl)benzenesulfonamide], the “Ratio of improving pain score (%)” value is given as “A (“A” when the rate was 61 to 100%)”.

Consider `CCn1nccc1[C@H]1CCCC[C@@H]1Oc1cc(F)c(S(=O)(=O)Nc2ccncn2)cc1F` (relative stereo) [Example 28, 4-{[(1S*,2R*)-2-(1-Ethyl-1H-pyrazol-5-yl)cyclohexyl]oxy}-2,5-difluoro-N-(pyrimidin-4-yl)benzenesulfonamide], for which the “Ratio of improving pain score (%)” value is “C (“C” when the rate was 0 to 30%)”.

Regarding `Cn1nccc1[C@H]1CCC[C@@H]1Oc1ccc(S(=O)(=O)Nc2ccncn2)c(F)c1` (relative stereo) [Example 29, 2-Fluoro-4-{[(1S*,2R*)-2-(1-methyl-1H-pyrazol-5-yl)cyclopentyl]oxy}-N-(pyrimidin-4-yl)benzenesulfonamide], the “Ratio of improving pain score (%)” value is “A (“A” when the rate was 61 to 100%)”.

For the molecule `O=S(=O)(Nc1ccncn1)c1cc(F)c(O[C@H]2CCCC[C@@H]2c2cn[nH]c2)cc1F` (relative stereo) [Example 33, 2,5-Difluoro-4-{[(1S*,2R*)-2-(1H-pyrazol-4-yl)cyclohexyl]oxy}-N-(pyrimidin-4-yl)benzenesulfonamide], the “Ratio of improving pain score (%)” value is reported as “A (“A” when the rate was 61 to 100%)”.

The next assay deals with hNav 1.7 (Homo sapiens (Human), UniProt Q15858). Nature of the assay: Electrophysiological evaluation, automated patch clamp IonWorks Quattro (Population Patch Clamp mode). Format: cell-based. The note with it: HEK293A cells stably expressing hNav 1.7/β1/β2; response to second depolarization pulse, pre-pulse potential set to V1/2; read-out: hNav1.7 IC50.
Sequence of hNav 1.7 (Q15858 whole entry): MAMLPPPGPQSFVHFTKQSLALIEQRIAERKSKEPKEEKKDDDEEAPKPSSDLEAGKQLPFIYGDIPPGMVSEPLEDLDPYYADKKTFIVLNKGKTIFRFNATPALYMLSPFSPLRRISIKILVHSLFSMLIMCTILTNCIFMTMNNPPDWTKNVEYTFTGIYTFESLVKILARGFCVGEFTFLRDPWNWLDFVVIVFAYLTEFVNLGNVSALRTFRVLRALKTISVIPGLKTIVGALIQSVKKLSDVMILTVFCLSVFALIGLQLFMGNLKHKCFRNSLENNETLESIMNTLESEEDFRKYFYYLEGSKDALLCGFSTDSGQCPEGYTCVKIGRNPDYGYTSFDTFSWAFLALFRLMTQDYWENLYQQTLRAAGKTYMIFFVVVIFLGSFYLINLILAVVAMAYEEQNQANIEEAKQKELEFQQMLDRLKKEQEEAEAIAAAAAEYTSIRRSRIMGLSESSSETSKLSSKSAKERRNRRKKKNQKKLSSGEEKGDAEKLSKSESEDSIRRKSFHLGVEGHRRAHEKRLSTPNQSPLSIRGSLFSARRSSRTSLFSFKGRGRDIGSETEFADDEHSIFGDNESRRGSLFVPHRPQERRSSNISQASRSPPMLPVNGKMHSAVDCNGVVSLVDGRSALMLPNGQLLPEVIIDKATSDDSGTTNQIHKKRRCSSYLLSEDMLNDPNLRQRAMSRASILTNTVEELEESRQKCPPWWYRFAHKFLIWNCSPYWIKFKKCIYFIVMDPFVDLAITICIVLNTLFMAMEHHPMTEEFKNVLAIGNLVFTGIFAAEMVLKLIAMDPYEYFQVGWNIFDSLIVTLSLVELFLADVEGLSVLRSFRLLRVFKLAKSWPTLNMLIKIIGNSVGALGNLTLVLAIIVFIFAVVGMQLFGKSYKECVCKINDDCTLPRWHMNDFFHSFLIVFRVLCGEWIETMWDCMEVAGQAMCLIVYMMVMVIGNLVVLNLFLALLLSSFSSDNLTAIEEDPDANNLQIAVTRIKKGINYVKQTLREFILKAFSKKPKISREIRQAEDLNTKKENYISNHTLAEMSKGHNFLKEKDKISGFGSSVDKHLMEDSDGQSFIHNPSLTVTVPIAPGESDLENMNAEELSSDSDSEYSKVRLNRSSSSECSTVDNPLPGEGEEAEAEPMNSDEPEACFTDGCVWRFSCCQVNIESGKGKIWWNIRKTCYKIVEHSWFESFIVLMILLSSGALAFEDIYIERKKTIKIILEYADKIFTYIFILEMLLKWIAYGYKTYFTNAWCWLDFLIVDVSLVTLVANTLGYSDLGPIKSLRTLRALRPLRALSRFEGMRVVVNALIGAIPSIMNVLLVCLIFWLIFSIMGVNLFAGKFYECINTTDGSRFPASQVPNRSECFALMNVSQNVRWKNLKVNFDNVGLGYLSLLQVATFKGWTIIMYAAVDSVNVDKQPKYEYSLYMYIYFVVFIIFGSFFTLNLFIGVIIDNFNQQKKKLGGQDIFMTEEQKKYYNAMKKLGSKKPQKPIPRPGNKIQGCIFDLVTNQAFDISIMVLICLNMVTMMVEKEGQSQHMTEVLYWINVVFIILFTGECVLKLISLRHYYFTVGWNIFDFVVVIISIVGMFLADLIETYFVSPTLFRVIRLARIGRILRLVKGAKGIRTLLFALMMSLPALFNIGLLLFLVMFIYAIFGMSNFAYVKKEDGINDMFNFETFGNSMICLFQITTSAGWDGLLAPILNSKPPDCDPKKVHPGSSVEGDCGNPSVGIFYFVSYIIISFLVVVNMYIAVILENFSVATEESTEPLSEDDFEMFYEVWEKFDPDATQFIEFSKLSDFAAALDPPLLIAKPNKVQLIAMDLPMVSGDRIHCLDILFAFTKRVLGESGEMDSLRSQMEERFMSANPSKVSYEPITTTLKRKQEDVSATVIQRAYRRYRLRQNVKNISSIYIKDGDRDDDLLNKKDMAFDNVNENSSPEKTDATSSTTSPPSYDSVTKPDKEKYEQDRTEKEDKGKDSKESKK
Sequence of hNav 1.7 (Q07699 19-218 partner): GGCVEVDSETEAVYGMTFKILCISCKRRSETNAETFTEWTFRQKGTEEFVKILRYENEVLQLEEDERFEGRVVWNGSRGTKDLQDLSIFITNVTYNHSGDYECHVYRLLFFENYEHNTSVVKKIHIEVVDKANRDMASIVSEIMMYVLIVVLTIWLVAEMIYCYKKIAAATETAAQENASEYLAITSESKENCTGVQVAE
Sequence of hNav 1.7 (O60939 30-215 partner): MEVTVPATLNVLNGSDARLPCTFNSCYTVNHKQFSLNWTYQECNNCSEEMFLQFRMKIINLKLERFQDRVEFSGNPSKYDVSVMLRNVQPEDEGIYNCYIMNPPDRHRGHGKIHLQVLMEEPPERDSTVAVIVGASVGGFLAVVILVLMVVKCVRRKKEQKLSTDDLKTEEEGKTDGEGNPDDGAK
In the case of `Cn1nccc1[C@H]1CCC[C@@H]1Oc1ccc(S(=O)(=O)Nc2ccncn2)cc1Cl` (relative stereo) [Example 23, 3-Chloro-4-({[(1S*,2R*)-2-(1-methyl-1H-pyrazol-5-yl)cyclopentyl]oxy}-N-(pyrimidin-4-yl)benzenesulfonamide], the IC50 stood at 130 nM.

Turning to `CCn1nccc1[C@H]1CCCC[C@@H]1Oc1cc(F)c(S(=O)(=O)Nc2ccncn2)cc1F` (relative stereo) [Example 28, 4-{[(1S*,2R*)-2-(1-Ethyl-1H-pyrazol-5-yl)cyclohexyl]oxy}-2,5-difluoro-N-(pyrimidin-4-yl)benzenesulfonamide], the IC50 was found to be 46 nM.

On to `Cn1nccc1[C@H]1CCC[C@@H]1Oc1ccc(S(=O)(=O)Nc2ccncn2)c(F)c1` (relative stereo) [Example 29, 2-Fluoro-4-{[(1S*,2R*)-2-(1-methyl-1H-pyrazol-5-yl)cyclopentyl]oxy}-N-(pyrimidin-4-yl)benzenesulfonamide], for which the IC50 is 1800 nM.

Take `O=S(=O)(Nc1ccncn1)c1cc(F)c(O[C@H]2CCCC[C@@H]2c2cn[nH]c2)cc1F` (relative stereo) [Example 33, 2,5-Difluoro-4-{[(1S*,2R*)-2-(1H-pyrazol-4-yl)cyclohexyl]oxy}-N-(pyrimidin-4-yl)benzenesulfonamide]: the half-maximal inhibitory concentration (IC50) came out at 300 nM.

With `CO[C@H]1C[C@H](Oc2cc(F)c(S(=O)(=O)Nc3ccncn3)cc2F)[C@@H](c2ccnn2C)C1` (relative stereo) [Example 121, 2,5-Difluoro-4-{[(1S*,2R*,4R*)-4-methoxy-2-(1-methyl-1H-pyrazol-5-yl)cyclopentyl]oxy}-N-(pyrimidin-4-yl)benzenesulfonamide], the IC50 came out at 930 nM.

For `Cn1nccc1[C@H]1CC(F)(F)CC[C@@H]1Oc1ccc(S(=O)(=O)Nc2ccncn2)c(F)c1` (relative stereo) [Example 130, 4-{[(1S*,2R*)-4,4-Difluoro-2-(1-methyl-1H-pyrazol-5-yl)cyclohexyl]oxy}-2-fluoro-N-(pyrimidin-4-yl)benzenesulfonamide], the IC50 is 880 nM.

Regarding `Cn1nccc1[C@H]1CCCC[C@@H]1Oc1cc(F)c(S(=O)(=O)Nc2ccnc(=O)[nH]2)cc1Cl` (relative stereo) [Example 153, 5-Chloro-2-fluoro-4-{[(1S*,2R*)-2-(1-methyl-1H-pyrazol-5-yl)cyclohexyl]oxy}-N-(2-oxo-2,3-dihydropyrimidin-4-yl)benzenesulfonamide], the IC50 is greater than 100000 nM.

Regarding `Cc1cc(S(=O)(=O)Nc2ccncn2)c(F)cc1O[C@H]1CC(F)(F)CC[C@@H]1c1ccn[nH]1` (relative stereo) [Example 155, 4-{[(1S*,2R*)-5,5-Difluoro-2-(1H-pyrazol-5-yl)cyclohexyl]oxy}-2-fluoro-5-methyl-N-(pyrimidin-4-yl)benzenesulfonamide], the IC50 came out at 28 nM.

Take `O=S(=O)(Nc1ccncn1)c1cc(Cl)c(O[C@H]2CC(F)(F)CC[C@@H]2c2ccn[nH]2)cc1F` (relative stereo) [Example 156, 5-Chloro-4-{[(1S*,2R*)-5,5-difluoro-2-(1H-pyrazol-5-yl)cyclohexyl]oxy}-2-fluoro-N-(pyrimidin-4-yl)benzenesulfonamide]: the IC50 turned out to be 41 nM.

Take `Cc1cc(S(=O)(=O)Nc2ccncn2)c(F)cc1O[C@H]1CCC(F)(F)C[C@@H]1c1ccn[nH]1` (relative stereo) [Example 157, 4-{[(1S*,2R*)-4,4-Difluoro-2-(1H-pyrazol-5-yl)cyclohexyl]oxy}-2-fluoro-5-methyl-N-(pyrimidin-4-yl)benzenesulfonamide]: the IC50 is 50 nM.

On to `Cn1nccc1[C@H]1CC[C@@H](O)C[C@@H]1Oc1cc(F)c(S(=O)(=O)Nc2ccncn2)cc1Cl` (relative stereo) [Example 160, 5-Chloro-2-fluoro-4-{[(1S*,2R*,5R*)-5-hydroxy-2-(1-methyl-1H-pyrazol-5-yl)cyclohexyl]oxy}-N-(pyrimidin-4-yl)benzenesulfonamide], for which the IC50 turned out to be 560 nM.

For the molecule `Cn1nccc1[C@H]1C[C@H](O)CC[C@@H]1Oc1cc(F)c(S(=O)(=O)Nc2ccncn2)cc1Cl` (relative stereo) [Example 161, 5-Chloro-2-fluoro-4-{[(1S*,2R*,4R*)-4-hydroxy-2-(1-methyl-1H-pyrazol-5-yl)cyclohexyl]oxy}-N-(pyrimidin-4-yl)benzenesulfonamide], the IC50 was 130 nM.

For the molecule `Cn1nccc1[C@H]1C[C@@H](O)CC[C@@H]1Oc1cc(F)c(S(=O)(=O)Nc2ccncn2)cc1Cl` (relative stereo) [Example 162, 5-Chloro-2-fluoro-4-{[(1S*,2R*,4S*)-4-hydroxy-2-(1-methyl-1H-pyrazol-5-yl)cyclohexyl]oxy}-N-(pyrimidin-4-yl)benzenesulfonamide], the IC50 was determined as 820 nM.

Take `Cn1nccc1[C@H]1CC[C@H](O)C[C@@H]1Oc1cc(F)c(S(=O)(=O)Nc2ccncn2)cc1Cl` (relative stereo) [Example 163, 5-Chloro-2-fluoro-4-{[(1S*,2R*,5S*)-5-hydroxy-2-(1-methyl-1H-pyrazol-5-yl)cyclohexyl]oxy}-N-(pyrimidin-4-yl)benzenesulfonamide]: the IC50 was 190 nM.

In the case of `O=S(=O)(Nc1ncns1)c1cc(F)c(O[C@H]2CCCC[C@@H]2c2ccccc2)cc1F` (single isomer, unassigned) [Example 1, 2,5-Difluoro-4-{[(1S*,2R*)-2-phenylcyclohexyl]oxy}-N-(1,2,4-thiadiazol-5-yl)benzenesulfonamide], the IC50 is 120 nM.

`O=S(=O)(Nc1ncns1)c1cc(F)c(O[C@H]2CCCC[C@@H]2c2ccccc2)cc1F` [Example 2, 2,5-Difluoro-4-{[(1S,2R)-2-phenylcyclohexyl]oxy}-N-(1,2,4-thiadiazol-5-yl)benzenesulfonamide]: the IC50 came to 20 nM.

As to `O=S(=O)(Nc1ncns1)c1cc(F)c(O[C@@H]2CCCC[C@H]2c2ccccc2)cc1F` [Example 75, 2,5-Difluoro-4-{[(1R,2S)-2-phenylcyclohexyl]oxy}-N-(1,2,4-thiadiazol-5-yl)benzenesulfonamide], the IC50 is greater than 10000 nM.

Consider `Cn1nccc1[C@H]1CCC(F)(F)C[C@@H]1Oc1cc(F)c(S(=O)(=O)Nc2ccncn2)cc1F` [Example 102, 4-{[(1S,2R)-5,5-Difluoro-2-(1-methyl-1H-pyrazol-5-yl)cyclohexyl]oxy}-2,5-difluoro-N-(pyrimidin-4-yl)benzenesulfonamide], for which the IC50 was determined as 36 nM.

Take `Cn1nccc1[C@H]1CCC[C@@H]1Oc1ccc(S(=O)(=O)Nc2ccncn2)c(F)c1` [Example 124, 2-Fluoro-4-{[(1S,2R)-2-(1-methyl-1H-pyrazol-5-yl)cyclopentyl]oxy}-N-(pyrimidin-4-yl)benzenesulfonamide]: the IC50 was found to be 2400 nM.

For the molecule `Cc1cc(S(=O)(=O)Nc2ccncn2)c(F)cc1O[C@@H]1CC(F)(F)CC[C@H]1c1cn[nH]c1` [Example 144, 4-{[(1R,2S)-5,5-Difluoro-2-(1H-pyrazol-4-yl)cyclohexyl]oxy}-2-fluoro-5-methyl-N-(pyrimidin-4-yl)benzenesulfonamide], the IC50 stood at 3400 nM.

With `Cc1cc(S(=O)(=O)Nc2ccncn2)c(F)cc1O[C@@H]1CCC[C@H]1c1ccn[nH]1` [Example 149, 2-Fluoro-5-methyl-4-{[(1R,2S)-2-(1H-pyrazol-5-yl)cyclopentyl]oxy}-N-(pyrimidin-4-yl)benzenesulfonamide], the IC50 came out at 32000 nM.

Regarding `O=S(=O)(Nc1ccncn1)c1cc(Cl)c(O[C@@H]2CCC[C@H]2c2ccn[nH]2)cc1F` [Example 151, 5-Chloro-2-fluoro-4-{[(1R,2S)-2-(1H-pyrazol-5-yl)cyclopentyl]oxy}-N-(pyrimidin-4-yl)benzenesulfonamide], the IC50 stood at 33000 nM.

Consider `O=S(=O)(Nc1ccncn1)c1cc(Cl)c(O[C@@H]2CCCC[C@H]2c2ccn[nH]2)cc1F` [Example 159, 5-Chloro-2-fluoro-4-{[(1R,2S)-2-(1H-pyrazol-5-yl)cyclohexyl]oxy}-N-(pyrimidin-4-yl)benzenesulfonamide], for which the IC50 amounted to 9800 nM.

Regarding `Cn1nccc1[C@@H]1C[C@@H](O)CC[C@H]1Oc1cc(F)c(S(=O)(=O)Nc2ccncn2)cc1Cl` [Example 164, 5-Chloro-2-fluoro-4-{[(1R,2S,4S)-4-hydroxy-2-(1-methyl-1H-pyrazol-5-yl)cyclohexyl]oxy}-N-(pyrimidin-4-yl)benzenesulfonamide], the IC50 is greater than 10000 nM.

Regarding `CC(=O)O[C@@H]1CC[C@H](Oc2cc(F)c(S(=O)(=O)Nc3ccncn3)cc2Cl)[C@@H](c2ccnn2C)C1` [Example 166, (1R,3R,4S)-4-[2-Chloro-5-fluoro-4-(pyrimidin-4-ylsulfamoyl)phenoxy]-3-(1-methyl-1H-pyrazol-5-yl)cyclohexyl acetate], the IC50 came to 59 nM.

Turning to `O=S(=O)(Nc1ccncn1)c1c(F)cc(O[C@@H]2CCCC[C@H]2c2cn[nH]c2)cc1F` [Example 169, 2,6-Difluoro-4-{[(1R,2S)-2-(1H-pyrazol-4-yl)cyclohexyl]oxy}-N-(pyrimidin-4-yl)benzenesulfonamide], the IC50 is greater than 10000 nM.

Consider `Cc1cc(S(=O)(=O)Nc2ccncn2)c(F)cc1O[C@@H]1CCCC[C@H]1c1cn[nH]c1` [Example 170, 2-Fluoro-5-methyl-4-{[(1R,2S)-2-(1H-pyrazol-4-yl)cyclohexyl]oxy}-N-(pyrimidin-4-yl)benzenesulfonamide], for which the IC50 is greater than 10000 nM.

In the case of `Cc1cc(S(=O)(=O)Nc2ccncn2)c(F)cc1O[C@H]1CCCC[C@@H]1c1cn[nH]c1` [Example 172, 2-Fluoro-5-methyl-4-{[(1S,2R)-2-(1H-pyrazol-4-yl)cyclohexyl]oxy}-N-(pyrimidin-4-yl)benzenesulfonamide], the IC50 was found to be 34 nM.
